Experimental data from KR20110062313A, “시티딘을 포함하는 약제학적 조성물” (주식회사 머젠스, priority 2009, dated 2011).
Several values for one entry are separate records, joined by “and”; a condition that tells them apart may be missing. Identical values can stand only once.

How the values were obtained:
[1] = tested on: HCE-T (human cornea epithelial cell) (HCE-T(사람 각막 상피 세포)); experiment: Hyaluronic acid amount in HCE-T medium by hyaluronan-ELISA; assay type: cell-based; parameters: dose or concentration left out as unconfirmed; settings: 1 ml medium containing cytidine, 72 h, 37℃
[2] = tested on: dry eye model in CBA/J mice (CBA/J 마우스의 건성안 모델); assay type: in vivo, mouse

## Nc1ccn([C@@H]2O[C@H](CO)[C@@H](O)[C@H]2O)c(=O)n1 [시티딘]
[1]
  amount of hyaluronic acid (mean): 88.9
[1]; versus control
  amount of hyaluronic acid compared with control group: 히아루론산의 양이 대조군에 비하여 증가하지 않음
[2]; N 8
  tear volume (mean): 7.39 and 4.54 and 6.18 and 7.03
[2]; mouse, in vivo
  tear volume compared with control group: 유의하게 눈물의 양이 증가
  tear volume compared with normal group: 정상군에 해당하는 눈물량의 분비
